Legend:
AML patients = assay: NOXA priming of pre-treatment bone marrow versus response to alvocidib in AML patients; type: in vivo, human; details: patients with pre-treatment bone marrow NOXA priming greater than or equal to 40%
From the text: Furthermore, high NOXA Priming (MCL-1 dependence) is predictive of alvocidib sensitivity in AML patients. […] FIG. 16A is a box-plot showing that high NOXA priming (MCL-1 dependence) is predictive of alvocidib sensitivity in acute myeloid leukemia (AML) patients. The box-plot plots NOXA priming in complete remission and no response patient bone marrow samples taken from patients prior to being treated with alvocidib. […] NR=no response). The box-plot plots NOXA priming in complete remission and no response patient bone marrow samples taken from patients prior to being treated with 7+3 chemotherapy.

THP-1 AML model = assay: THP-1 AML xenograft model; type: in vivo; details: alvocidib alone
[1] = test system: pRpb1 and MCL1 in primary MDS BMMCs; assay: pRpb1 and MCL1 levels in MDS patient cells after alvocidib; type: cell-based, human; details: relative to DMSO
From the text: It has been shown that alvocidib reduces RNA pol II phosphorylation and MCL-1 expression in vitro. […] Phospho-RNA polymerase (pRpb1) and MCL-1 (MCL1) levels are decreased after alvocidib treatment in MDS patient cells (FIG. 23). Levels are indicated as a percent relative to levels measured for a DMSO treated sample. Numbers in parenthesis represent concentrations in nM for each alvocidib (Alvo) treatment.
Additionally, an assay has been tested in bone marrow mononuclear cells (BMMCs) from AML and MDS patients to examine MCL-1 dependency prior to therapy with alvocidib. Approximately 25% of AML patient BMMCs and 60% of MDS patient BMMCs are MCL-1 dependent. Azacitidine and decitabine increased NOXA expression in AML cell line models. […] Combination studies are currently under investigation to determine whether enhanced anti-cancer activity is observed through pharmacologic downregulation of MCL-1 via CDK9 inhibition by alvocidib and upregulation of the MCL-1 antagonist NOXA after HMA exposure.

clinical = details: human, in vivo; for AUC(0-t): 75 mg/m2, AUC(0-27); for Cmax: 75 mg/m2, Cmax; for Tmax: 75 mg/m2, Tmax
From the text: Plasma PK analyses for alvocidib and known metabolites, if any, and dose proportionality will be determined on Days 8 and 9 (for patients receiving alvocidib following DEC) or Days 10 and 11 (for patients receiving alvocidib following AZA) of Cycle 1 in all patients enrolled in the study, according to Table 5 or Table 6: […]

CD34+ MDS BMMNC = assay: Caspase-Glo 3/7 apoptotic activity in CD34+ MDS BMMNC (Example 17 efficacy study); type: cell-based, human; details: azacitidine 100 nM 24 hours, alvocidib 100 nM 24 hours
Procedure: CD34^+ cells were isolated by CD34 MicroBead Kit (Miltenyi Biotec) and cultured in StemSpan™ SFEM II with StemSpan™ CD34^+ Expansion Supplement (STEMCELL Technologies). […] Apoptotic activity was assessed by Caspase-Glo® 3/7 assay (Promega).

MDS BMMC's = assay: Cell viability following 48 hours treatment (FIGS. 26A/26B; IC50 in MDS BMMC's); type: cell-based
From the text: Additionally, an assay has been tested in bone marrow mononuclear cells (BMMCs) from AML and MDS patients to examine MCL-1 dependency prior to therapy with alvocidib. […] Combination studies are currently under investigation to determine whether enhanced anti-cancer activity is observed through pharmacologic downregulation of MCL-1 via CDK9 inhibition by alvocidib and upregulation of the MCL-1 antagonist NOXA after HMA exposure.
FIGS. 26A and 26B are scatter plots showing cell viability following 48 hours treatment at indicated concentrations of azacytidine (alone) or alvocidib (alone). FIG. 26A is a plot of cell viability following 48-hour treatment against indicated concentrations of azacitidine. […] FIG. 26B is a plot of cell viability following 48-hour treatment against indicated concentrations of alvocidib.

[2] = test system: RNA pol II phosphorylation and MCL-1 expression in MV-4-11 AML cells; assay: Flow cytometry of RNA pol II phosphorylation and MCL-1 expression in MV-4-11 AML cells; type: cell-based; details: 24-hour treatment
[3] = test system: luciferase expressing MV4-11 model; assay: Luciferase expressing MV4-11 AML xenograft model; type: in vivo; details: alvocidib alone
[4] = test system: MCL-1 expression in MV4-11 cells; assay: Western blot of MCL-1 protein in MV4-11 cells treated with alvocidib; type: cell-based
From the text: FIG. 9 is an illustration of a proposed mechanism by which alvocidib inhibits expression of MCL-1 by inhibiting CDK9.

[5] = test system: MCL-1 and NOXA expression in MV-4-11 cells; assay: Western blot of NOXA and MCL-1 in MV-4-11 cells, alvocidib and azacytidine; type: cell-based; details: with azacytidine
From the text: FIG. 28A is an overview of an experimental used to evaluate an interaction between alvocidib and azacytidine with regard to MCL-1 and NOXA expression. FIG. 28B is a Western blot showing NOXA and MCL-1 levels in cells treated according to the experiment summarized in FIG. 28A at indicated drug concentrations.

MOLM13 xenograft model = assay: MOLM13 xenograft model, tumor volume and survival; type: in vivo; details: aggressive daily dosing, tumor bearing mice
Procedure: FIGS. 31A and 31B show results from sequential dosing of alvocidib and HMAs in a MOLM13 model for MDS/sAML. HMA dosing sensitized AML cells to sequential dosing and improved survival in vivo. Alvocidib, azacytidine, and decitabine activity were assessed in the MOLM13 xenograft model. FIG. 31A is a plot of tumor volume over time and FIG. 31B is a plot of percent survival over time. Mice were dosed with alvocidib, qdx2, and/or an HMA, qdx3 on a weekly basis. Doses are indicated in mg/kg (mpk).
[…] show results from aggressive daily dosing of alvocidib and decitabine in the MOLM13 model. Tumor bearing mice were treated. Doses and schedule are indicated. FIG. 32A plots tumor volume following treatment and FIG. 32B plots body weight following treatment.

OCI AML3 xenograft model = assay: OCI AML3 xenograft model; type: in vivo
circulating blasts = details: three-day dosing, in the clinic; cited from earlier work
[6] = test system: NOXA and MCL-1 expression in CD34+ MDS BMMNC; assay: Pharmacodynamic marker study, Western blot NOXA/MCL-1 in CD34+ MDS BMMNC; type: cell-based, human; details: Patient 0219; azacitidine 0.3 or 0.6 μM 24 hours, then alvocidib 0.1 μM 6 hours
Procedure: A pharmacodynamic maker study was performed for azaditidine and alvocidib using MDS patient-derived BMMNC from Cureline. CD34^+ cells were isolated by CD34 MicroBead Kit (Miltenyi Biotec) and cultured in StemSpan™ SFEM II with StemSpan™ CD34^+ Expansion Supplement (STEMCELL Technologies). […] Protein was extracted using RIPA buffer with protease and phosphatase inhibitor cocktail. Protein expression was assessed by Western blot using NOXA (CST, Cat #14766S), MCL-1(CST, Cat #392245) and β-actin (CST, Cat #4967L) antibodies. Apoptotic activity was assessed by Caspase-Glo® 3/7 assay (Promega).

CN1CC[C@H](c2c(O)cc(O)c3c(=O)cc(-c4ccccc4Cl)oc23)[C@H](O)C1 [alvocidib]
complete recovery rate (AML patients): 100%
TGI (THP-1 AML model): 30.8%
Phospho-RNA polymerase (pRpb1) and MCL-1 (MCL1) levels [1]: decreased
Phospho-RNA polymerase (pRpb1) and MCL-1 (MCL1) levels ([1]; listed as Alvocidib): dose dependent reduction
decrease of AUC going from cohort 4 to cohort 5 (clinical): 47.6%
decrease of Cmax going from cohort 4 to cohort 5 (clinical): 15.4%
AUC(0-t) (clinical): 3410 ng·h/mL
AUC(0-t) (clinical; Mean): 4080 ng·h/mL
Cmax (clinical): 868 ng/mL
Cmax (clinical; Mean): 924 ng/mL
half-life (clinical; 75 mg/m2, T1/2): 8.23 h
half-life (clinical; 75 mg/m2, T1/2, Mean): 8 h
Tmax (clinical): 0 h
Tmax (clinical; Mean): 0 h
increase of apoptotic activity versus DMSO (CD34+ MDS BMMNC; Patient 0219): 31%
increase of apoptotic activity versus DMSO (CD34+ MDS BMMNC; Patient 1115 (high-risk MDS)): 240%
IC50 (MDS BMMC's): ~100 nM
inhibition of RNA pol II phosphorylation and MCL-1 expression [2]: dose-dependent
total flux count [3]: complete abrogation
MCL-1 protein in response to alvocidib (Western blot) ([4]; FIG. 8 left panel): dose-dependent decrease
duration of knock-down of MCL-1 ([4]; MV4-11 cells, 80 nM alvocidib): exceeds 96 hours
MCL-1 and NOXA levels (Western blot) [5]: inhibits upregulation of MCL-1 by azacytidine without affecting NOXA induction
tumor growth inhibition (% TGI) (MOLM13 xenograft model): 75.8%
tumor growth inhibition (% TGI) (OCI AML3 xenograft model): 55.0%
average reduction of circulating blasts (circulating blasts): greater than 75%
NOXA and MCL-1 protein expression (Western blot) versus DMSO [6]: suppressed MCL-1 expression

Source: patent US20240382473A1, “Combination Therapies for Treatment of Myelodysplastic Syndrome” (priority 2019, published 2024)
